In publication PMC9229160 (Pharmaceuticals, 2022):

Target: T1, human kappa-opioid receptor (KOR) (Homo sapiens, UniProt P41145)
T1 construct: gene OPRK1
Assay: [3H]U69, […] radioligand competition binding, CHO-hKOR membranes; […]GTPγS antagonism (Ke […])

**Q.** With `Cc1c(NC(=O)c2ccc(Cl)cc2)cc(-c2ccccc2)n1CCCN1CCOCC1` [Compound A] as the molecule, how does the Ki read?
**A.** 1350 ± 320 nM
